Where a SMILES comes first, the peptide text is derived from it. Bridges are numbered along the chain shown (N, C = ends). [ ]: non-standard residue; d: D form. Bip(4'-NHAc) = CC(=O)Nc1ccc(-c2ccc(C[C@H](N)C(=O)O)cc2)cc1; Ala(4-isoquinolinyl) = N[C@@H](Cc1cncc2ccccc12)C(=O)O; Phe(3,4,5-F3) = N[C@@H](Cc1cc(F)c(F)c(F)c1)C(=O)O; Bip = N[C@@H](Cc1ccc(-c2ccccc2)cc1)C(=O)O; Phe(3-Cl) = N[C@@H](Cc1cccc(Cl)c1)C(=O)O; hPhe = N[C@@H](CCc1ccccc1)C(=O)O; Aad = N[C@@H](CCCC(=O)O)C(=O)O; Cha = N[C@@H](CC1CCCCC1)C(=O)O; Cit = NC(=O)NCCC[C@H](N)C(=O)O; Orn = NCCC[C@H](N)C(=O)O; Dab = NCC[C@H](N)C(=O)O; Dap = NC[C@H](N)C(=O)O

In general, IC50 refers to the point on the concentration scale where inhibition reaches its midpoint.

The target in the assay is T1, human PD-1 / PD-L1-Ig binding on Jurkat cell line over-expressing human PD-1 (Jurkat-PD-1) (Homo sapiens, UniProt Q15116).
T1 construct: expressed in transfected cells; host or cells: Jurkat
T1 sequence (Q15116 25-288): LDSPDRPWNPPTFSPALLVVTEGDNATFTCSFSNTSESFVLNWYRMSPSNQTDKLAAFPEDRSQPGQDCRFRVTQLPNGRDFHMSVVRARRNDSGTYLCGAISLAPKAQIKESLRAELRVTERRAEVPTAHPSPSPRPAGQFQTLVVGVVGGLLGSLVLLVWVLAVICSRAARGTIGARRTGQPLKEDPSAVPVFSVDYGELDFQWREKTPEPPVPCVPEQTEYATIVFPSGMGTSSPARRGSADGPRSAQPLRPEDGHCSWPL
Nature of the assay: Jurkat-PD-1 Cell Binding High-Content Screening Assay (CBA). Type of assay: cell-based. The note with it: Jurkat-PD-1 cells, PE-labeled PD-L1-Ig 20 nM final; read-out: Jurkat HPD1_PDL1 IC50. The procedure, abridged:
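Read-out: high-content imaging of PE-tagged PD-L1-Ig bound to Jurkat cells overexpressing human PD-1, after fixation with 4% paraformaldehyde and Hoechst 33342 nuclear staining. Ligand was used at 20 nM final for 1 hour, after a 2 h compound exposure at 37° C in serum-containing DMEM.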
Take `CC(C)C[C@H]1NC(=O)[C@H](CCCN)NC(=O)[C@H](CCCNC(N)=O)NC(=O)[C@H](Cc2ccc(-c3ccccc3)cc2)NC(=O)[C@H](C(C)C)NC(=O)[C@H](Cc2c[nH]c3ccccc23)NC(=O)[C@H](CC(=O)O)NC(=O)[C@H](Cc2cccc(Cl)c2)NC(=O)[C@H](CN)NC(=O)CSC[C@@H](C(=O)N[C@@H](C)C(N)=O)NC(=O)[C@H]([C@@H](C)O)NC(=O)[C@H](C(C)C)NC(=O)[C@H](CC2CCCCC2)NC(=O)[C@H](CCN)NC1=O` [Compound 2111] ({CH2CO}-[Dap][Phe(3-Cl)]DWV[Bip][Cit][Orn][dL][Dab][Cha]VTCA-NH2; thioether N-14): the IC50 stood at 33 nM.

Turning to `COc1ccc(C[C@@H]2NC(=O)[C@H](CN)NC(=O)CSC[C@@H](C(=O)N[C@@H](C)C(N)=O)NC(=O)[C@H]([C@@H](C)O)NC(=O)[C@H](C(C)C)NC(=O)[C@H](CC3CCCCC3)NC(=O)[C@H](CCN)NC(=O)[C@@H](CC(C)C)NC(=O)[C@H](CCCN)NC(=O)[C@H](CCCNC(N)=O)NC(=O)[C@H](Cc3ccc(-c4ccccc4)cc3)NC(=O)[C@H](C(C)C)NC(=O)[C@H](Cc3c[nH]c4ccccc34)NC(=O)[C@H](CC(=O)O)NC2=O)cc1` [Compound 2112], the 50% inhibitory concentration (IC50) was determined as 18 nM.

On to `CC(C)C[C@H]1NC(=O)[C@H](CCCN)NC(=O)[C@H](CCCNC(N)=O)NC(=O)[C@H](Cc2ccc(-c3ccccc3)cc2)NC(=O)[C@H](C(C)C)NC(=O)[C@H](Cc2c[nH]c3ccccc23)NC(=O)[C@H](CC(=O)O)NC(=O)[C@H](Cc2ccc(O)c([N+](=O)[O-])c2)NC(=O)[C@H](CN)NC(=O)CSC[C@@H](C(=O)N[C@@H](C)C(N)=O)NC(=O)[C@H]([C@@H](C)O)NC(=O)[C@H](C(C)C)NC(=O)[C@H](CC2CCCCC2)NC(=O)[C@H](CCN)NC1=O` [Compound 2113], for which the IC50 stood at 14.9 nM.

Take `CC(C)C[C@H]1NC(=O)[C@H](CCCN)NC(=O)[C@H](CCCNC(N)=O)NC(=O)[C@H](Cc2ccc(-c3ccccc3)cc2)NC(=O)[C@H](C(C)C)NC(=O)[C@H](Cc2c[nH]c3ccccc23)NC(=O)[C@H](CC(=O)O)NC(=O)[C@H](Cc2csc3ccccc23)NC(=O)[C@H](CN)NC(=O)CSC[C@@H](C(=O)N[C@@H](C)C(N)=O)NC(=O)[C@H]([C@@H](C)O)NC(=O)[C@H](C(C)C)NC(=O)[C@H](CC2CCCCC2)NC(=O)[C@H](CCN)NC1=O` [Compound 2114]: the IC50 amounted to 68.9 nM.

Regarding `CC(C)C[C@H]1NC(=O)[C@H](CCCN)NC(=O)[C@H](CCCNC(N)=O)NC(=O)[C@H](Cc2ccc(-c3ccccc3)cc2)NC(=O)[C@H](C(C)C)NC(=O)[C@H](Cc2c[nH]c3ccccc23)NC(=O)[C@H](CC(=O)O)NC(=O)[C@H](Cc2cccc3ccccc23)NC(=O)[C@H](CN)NC(=O)CSC[C@@H](C(=O)N[C@@H](C)C(N)=O)NC(=O)[C@H]([C@@H](C)O)NC(=O)[C@H](C(C)C)NC(=O)[C@H](CC2CCCCC2)NC(=O)[C@H](CCN)NC1=O` [Compound 2115], the half-inhibitory concentration (IC50) turned out to be 53.4 nM.

As to `CC(C)C[C@H]1NC(=O)[C@H](CCCN)NC(=O)[C@H](CCCNC(N)=O)NC(=O)[C@H](Cc2ccc(-c3ccccc3)cc2)NC(=O)[C@H](C(C)C)NC(=O)[C@H](Cc2c[nH]c3ccccc23)NC(=O)[C@H](CC(=O)O)NC(=O)[C@H](Cc2ccc3ncccc3c2)NC(=O)[C@H](CN)NC(=O)CSC[C@@H](C(=O)N[C@@H](C)C(N)=O)NC(=O)[C@H]([C@@H](C)O)NC(=O)[C@H](C(C)C)NC(=O)[C@H](CC2CCCCC2)NC(=O)[C@H](CCN)NC1=O` [Compound 2116], the half-inhibitory concentration (IC50) worked out at 8.9 nM.

For the compound `CC(C)C[C@H]1NC(=O)[C@H](CCCN)NC(=O)[C@H](CCCNC(N)=O)NC(=O)[C@H](Cc2ccc(-c3ccccc3)cc2)NC(=O)[C@H](C(C)C)NC(=O)[C@H](Cc2c[nH]c3ccccc23)NC(=O)[C@H](CC(=O)O)NC(=O)[C@H](Cc2ccc3ccncc3c2)NC(=O)[C@H](CN)NC(=O)CSC[C@@H](C(=O)N[C@@H](C)C(N)=O)NC(=O)[C@H]([C@@H](C)O)NC(=O)[C@H](C(C)C)NC(=O)[C@H](CC2CCCCC2)NC(=O)[C@H](CCN)NC1=O` [Compound 2117], the IC50 amounted to 18.7 nM.

In the case of `CC(C)C[C@H]1NC(=O)[C@H](CCCN)NC(=O)[C@H](CCCNC(N)=O)NC(=O)[C@H](Cc2ccc(-c3ccccc3)cc2)NC(=O)[C@H](C(C)C)NC(=O)[C@H](Cc2c[nH]c3ccccc23)NC(=O)[C@H](CC(=O)O)NC(=O)[C@H](Cc2cncc3ccccc23)NC(=O)[C@H](CN)NC(=O)CSC[C@@H](C(=O)N[C@@H](C)C(N)=O)NC(=O)[C@H]([C@@H](C)O)NC(=O)[C@H](C(C)C)NC(=O)[C@H](CC2CCCCC2)NC(=O)[C@H](CCN)NC1=O` [Compound 2118] ({CH2CO}-[Dap][Ala(4-isoquinolinyl)]DWV[Bip][Cit][Orn][dL][Dab][Cha]VTCA-NH2; thioether N-14), the IC50 worked out at 62.6 nM.

For `CC(C)C[C@H]1NC(=O)[C@H](CCCN)NC(=O)[C@H](CCCNC(N)=O)NC(=O)[C@H](Cc2ccc(-c3ccccc3)cc2)NC(=O)[C@H](C(C)C)NC(=O)[C@H](Cc2c[nH]c3ccccc23)NC(=O)[C@H](CC(=O)O)NC(=O)[C@H](CC(=O)O)NC(=O)[C@H](CN)NC(=O)CSC[C@@H](C(=O)N[C@@H](C)C(N)=O)NC(=O)[C@H]([C@@H](C)O)NC(=O)[C@H](C(C)C)NC(=O)[C@H](CC2CCCCC2)NC(=O)[C@H](CCN)NC1=O` [Compound 2120] ({CH2CO}-[Dap]DDWV[Bip][Cit][Orn][dL][Dab][Cha]VTCA-NH2; thioether N-14), the IC50 came to 964 nM.

For the compound `CC(C)C[C@H]1NC(=O)[C@H](CCCN)NC(=O)[C@H](CCCNC(N)=O)NC(=O)[C@H](Cc2ccc(-c3ccccc3)cc2)NC(=O)[C@H](C(C)C)NC(=O)[C@H](Cc2c[nH]c3ccccc23)NC(=O)[C@H](CC(=O)O)NC(=O)[C@H](CCC(=O)O)NC(=O)[C@H](CN)NC(=O)CSC[C@@H](C(=O)N[C@@H](C)C(N)=O)NC(=O)[C@H]([C@@H](C)O)NC(=O)[C@H](C(C)C)NC(=O)[C@H](CC2CCCCC2)NC(=O)[C@H](CCN)NC1=O` [Compound 2121] ({CH2CO}-[Dap]EDWV[Bip][Cit][Orn][dL][Dab][Cha]VTCA-NH2; thioether N-14), the IC50 is 232 nM.

Take `CC(C)C[C@H]1NC(=O)[C@H](CCCN)NC(=O)[C@H](CCCNC(N)=O)NC(=O)[C@H](Cc2ccc(-c3ccccc3)cc2)NC(=O)[C@H](C(C)C)NC(=O)[C@H](Cc2c[nH]c3ccccc23)NC(=O)[C@H](CC(=O)O)NC(=O)[C@H](Cc2c[nH]c3ccccc23)NC(=O)[C@H](CN)NC(=O)CSC[C@@H](C(=O)N[C@@H](C)C(N)=O)NC(=O)[C@H]([C@@H](C)O)NC(=O)[C@H](C(C)C)NC(=O)[C@H](CC2CCCCC2)NC(=O)[C@H](CCN)NC1=O` [Compound 2122] ({CH2CO}-[Dap]WDWV[Bip][Cit][Orn][dL][Dab][Cha]VTCA-NH2; thioether N-14): the IC50 came out at 31.3 nM.

Take `CC(=O)Nc1ccc(-c2ccc(C[C@@H]3NC(=O)[C@H](CN)NC(=O)CSC[C@@H](C(=O)N[C@@H](C)C(N)=O)NC(=O)[C@H]([C@@H](C)O)NC(=O)[C@H](C(C)C)NC(=O)[C@H](CC4CCCCC4)NC(=O)[C@H](CCN)NC(=O)[C@@H](CC(C)C)NC(=O)[C@H](CCCN)NC(=O)[C@H](CCCNC(N)=O)NC(=O)[C@H](Cc4ccc(-c5ccccc5)cc4)NC(=O)[C@H](C(C)C)NC(=O)[C@H](Cc4c[nH]c5ccccc45)NC(=O)[C@H](CC(=O)O)NC3=O)cc2)cc1` [Compound 2124] ({CH2CO}-[Dap][Bip(4'-NHAc)]DWV[Bip][Cit][Orn][dL][Dab][Cha]VTCA-NH2; thioether N-14): the IC50 is 22.6 nM.

In the case of `CC(C)C[C@H]1NC(=O)[C@H](CCCN)NC(=O)[C@H](CCCNC(N)=O)NC(=O)[C@H](Cc2ccc(-c3ccccc3)cc2)NC(=O)[C@H](C(C)C)NC(=O)[C@H](Cc2c[nH]c3ccccc23)NC(=O)[C@H](CC(=O)O)NC(=O)[C@H](CCCC(=O)O)NC(=O)[C@H](CN)NC(=O)CSC[C@@H](C(=O)N[C@@H](C)C(N)=O)NC(=O)[C@H]([C@@H](C)O)NC(=O)[C@H](C(C)C)NC(=O)[C@H](CC2CCCCC2)NC(=O)[C@H](CCN)NC1=O` [Compound 2125] ({CH2CO}-[Dap][Aad]DWV[Bip][Cit][Orn][dL][Dab][Cha]VTCA-NH2; thioether N-14), the IC50 came out at 57.1 nM.

For the compound `CC(C)C[C@H]1NC(=O)[C@H](CCCN)NC(=O)[C@H](CCCNC(N)=O)NC(=O)[C@H](Cc2ccc(-c3ccccc3)cc2)NC(=O)[C@H](C(C)C)NC(=O)[C@H](Cc2c[nH]c3ccccc23)NC(=O)[C@H](CC(=O)O)NC(=O)[C@H](CCc2ccccc2)NC(=O)[C@H](CN)NC(=O)CSC[C@@H](C(=O)N[C@@H](C)C(N)=O)NC(=O)[C@H]([C@@H](C)O)NC(=O)[C@H](C(C)C)NC(=O)[C@H](CC2CCCCC2)NC(=O)[C@H](CCN)NC1=O` [Compound 2126] ({CH2CO}-[Dap][hPhe]DWV[Bip][Cit][Orn][dL][Dab][Cha]VTCA-NH2; thioether N-14), the IC50 was found to be 7.9 nM.

Consider `CC(C)C[C@H]1NC(=O)[C@H](CCCN)NC(=O)[C@H](CCCNC(N)=O)NC(=O)[C@H](Cc2ccc(-c3ccccc3)cc2)NC(=O)[C@H](C(C)C)NC(=O)[C@H](Cc2c[nH]c3ccccc23)NC(=O)[C@H](CC(=O)O)NC(=O)[C@H](Cc2cc(F)c(F)c(F)c2)NC(=O)[C@H](CN)NC(=O)CSC[C@@H](C(=O)N[C@@H](C)C(N)=O)NC(=O)[C@H]([C@@H](C)O)NC(=O)[C@H](C(C)C)NC(=O)[C@H](CC2CCCCC2)NC(=O)[C@H](CCN)NC1=O` [Compound 2127] ({CH2CO}-[Dap][Phe(3,4,5-F3)]DWV[Bip][Cit][Orn][dL][Dab][Cha]VTCA-NH2; thioether N-14), for which the IC50 stood at 47.4 nM.

As to `CC(C)C[C@H]1NC(=O)[C@H](CCCN)NC(=O)[C@H](CCCNC(N)=O)NC(=O)[C@H](Cc2ccc(-c3ccccc3)cc2)NC(=O)[C@H](C(C)C)NC(=O)[C@H](Cc2c[nH]c3ccccc23)NC(=O)[C@H](CC(=O)O)NC(=O)[C@H](Cc2cccs2)NC(=O)[C@H](CN)NC(=O)CSC[C@@H](C(=O)N[C@@H](C)C(N)=O)NC(=O)[C@H]([C@@H](C)O)NC(=O)[C@H](C(C)C)NC(=O)[C@H](CC2CCCCC2)NC(=O)[C@H](CCN)NC1=O` [Compound 2128], the IC50 was found to be 7.5 nM.

For the origin of these results see patent US20250163104A1, “MACROCYCLIC IMMUNOMODULATORS” (priority 2021, published 2025).
